# Measurements from PMC7367925, “The EU-ToxRisk method documentation, data processing and chemical testing pipeline for the regulatory use of new approach methods” (Archives of Toxicology, 2020).
# Like-named read-outs stand apart in the source and are kept apart here.
# Legend:
# [1] = test system: U-2 OS reporter cell lines battery; assay: CALUX reporter gene assay battery as a whole
# [2] = test system: Transcription of p21 inhibitor of cell cycle progression; assay: p21 CALUX; format: cell-based, human; settings: 24 h exposure, lowest effect level PC10, means from 3 assay runs
# Protocol: (§1) After 24 h, exposure medium was prepared. […] All samples were tested in triplicates. […] Fig. SM_4. […] Fig. SM_4.
# (§2) Supplementary Material SM_4
# (§3) Overview of CALUX assays.
# (§4) This is defined as the concentration of test compound […]
# (§5) for an antagonist assay is a PC20.
# (§6) PC = positive control. FI = fold induction. PC10: concentration where test compound causes an activation equal to 10% of the maximum effect (positive control). PC20: concentration where test compound causes […]
# (§7) FI=1.5: concentration where test
# (§8) (A) exemplary graph of concentration- […]
# (§9) receptor antagonism assay with PC20 as lowest-effect-level. (C) exemplary graph for assay with 1.5 fold inductionas lowest effect level. 9
# [3] = molecular target: T1, Progesterone receptor (Homo sapiens, UniProt P06401); assay: PR-anti CALUX; format: cell-based; settings: 24 h exposure, lowest effect level PC20, reference agonist at EC50, means from 3 assay runs
# T1 construct: host or cells: U-2 OS
# T1 sequence (P06401 1-933): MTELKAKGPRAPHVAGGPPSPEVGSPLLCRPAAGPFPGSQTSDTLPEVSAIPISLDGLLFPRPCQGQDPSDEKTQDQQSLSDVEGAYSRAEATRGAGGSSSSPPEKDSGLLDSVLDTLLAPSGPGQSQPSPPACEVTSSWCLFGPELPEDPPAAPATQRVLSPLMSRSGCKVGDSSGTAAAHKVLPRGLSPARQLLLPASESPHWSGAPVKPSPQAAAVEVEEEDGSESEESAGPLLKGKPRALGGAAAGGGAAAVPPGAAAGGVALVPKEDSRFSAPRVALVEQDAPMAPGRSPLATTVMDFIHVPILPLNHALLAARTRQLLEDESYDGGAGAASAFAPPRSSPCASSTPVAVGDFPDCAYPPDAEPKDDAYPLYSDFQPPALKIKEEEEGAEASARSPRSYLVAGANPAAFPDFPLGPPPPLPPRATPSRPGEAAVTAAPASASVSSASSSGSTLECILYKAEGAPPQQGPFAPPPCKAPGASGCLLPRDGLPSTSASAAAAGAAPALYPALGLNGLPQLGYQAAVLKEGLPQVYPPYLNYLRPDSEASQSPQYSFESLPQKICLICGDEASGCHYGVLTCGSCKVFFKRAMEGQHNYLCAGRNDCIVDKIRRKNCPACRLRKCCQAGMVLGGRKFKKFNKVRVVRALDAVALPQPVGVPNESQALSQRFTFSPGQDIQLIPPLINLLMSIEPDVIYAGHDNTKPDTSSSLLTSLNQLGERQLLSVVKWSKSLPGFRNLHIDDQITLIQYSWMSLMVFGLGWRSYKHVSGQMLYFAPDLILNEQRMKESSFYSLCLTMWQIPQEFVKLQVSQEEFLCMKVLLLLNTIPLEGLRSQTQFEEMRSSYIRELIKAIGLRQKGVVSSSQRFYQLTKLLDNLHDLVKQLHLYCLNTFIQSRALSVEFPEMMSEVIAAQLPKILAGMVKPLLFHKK
# Protocol: as §1, §2, §3, §4, §5, §6, §7, §8, §9
# [4] = molecular target: T2, Androgen receptor (Homo sapiens, UniProt P10275); format: cell-based; settings: 24 h exposure, lowest effect level PC20, reference agonist at EC50, means from 3 assay runs
# T2 construct: host or cells: U-2 OS
# T2 sequence (P10275 1-920): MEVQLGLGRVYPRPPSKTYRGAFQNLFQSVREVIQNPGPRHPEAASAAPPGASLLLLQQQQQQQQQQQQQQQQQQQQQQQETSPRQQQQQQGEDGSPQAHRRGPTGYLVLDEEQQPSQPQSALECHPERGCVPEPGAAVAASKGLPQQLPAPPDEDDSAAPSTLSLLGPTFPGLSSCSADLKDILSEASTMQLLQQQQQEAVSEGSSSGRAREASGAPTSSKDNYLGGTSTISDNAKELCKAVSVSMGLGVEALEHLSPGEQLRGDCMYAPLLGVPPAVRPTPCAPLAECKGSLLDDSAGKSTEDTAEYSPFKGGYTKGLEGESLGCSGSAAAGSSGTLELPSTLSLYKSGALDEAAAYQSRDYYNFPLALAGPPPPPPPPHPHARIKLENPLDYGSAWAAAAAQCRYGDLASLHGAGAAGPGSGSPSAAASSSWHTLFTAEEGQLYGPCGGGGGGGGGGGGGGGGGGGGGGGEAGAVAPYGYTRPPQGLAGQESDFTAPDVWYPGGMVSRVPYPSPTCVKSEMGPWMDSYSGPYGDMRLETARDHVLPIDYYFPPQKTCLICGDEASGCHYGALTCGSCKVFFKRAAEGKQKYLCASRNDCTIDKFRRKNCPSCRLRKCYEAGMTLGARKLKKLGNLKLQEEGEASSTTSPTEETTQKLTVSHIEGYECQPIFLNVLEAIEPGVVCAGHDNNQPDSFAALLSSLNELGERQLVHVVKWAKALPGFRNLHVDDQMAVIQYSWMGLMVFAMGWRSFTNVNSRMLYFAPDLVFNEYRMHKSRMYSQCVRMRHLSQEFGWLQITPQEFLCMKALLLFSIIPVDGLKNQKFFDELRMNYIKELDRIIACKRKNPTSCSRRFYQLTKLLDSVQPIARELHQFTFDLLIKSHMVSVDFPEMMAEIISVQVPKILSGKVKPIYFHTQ
# Protocol: as §1, §2, §3, §4, §5, §6, §7, §8, §9
# [5] = test system: p53-dependent pathway activation / genotoxicity; format: cell-based, human; settings: for PoD p53: 24 h exposure, lowest effect level FI=1.5, means from 3 assay runs
# Protocol: as §1, §2, §3, §4, §5, §6, §7, §8, §9
# [6] = molecular target: T3, Thyroid hormone receptor beta (Homo sapiens, UniProt P10828); assay: TRb-anti CALUX; format: cell-based; settings: 24 h exposure, lowest effect level PC20, reference agonist at EC50, means from 3 assay runs
# T3 construct: host or cells: U-2 OS
# T3 sequence (P10828 1-461): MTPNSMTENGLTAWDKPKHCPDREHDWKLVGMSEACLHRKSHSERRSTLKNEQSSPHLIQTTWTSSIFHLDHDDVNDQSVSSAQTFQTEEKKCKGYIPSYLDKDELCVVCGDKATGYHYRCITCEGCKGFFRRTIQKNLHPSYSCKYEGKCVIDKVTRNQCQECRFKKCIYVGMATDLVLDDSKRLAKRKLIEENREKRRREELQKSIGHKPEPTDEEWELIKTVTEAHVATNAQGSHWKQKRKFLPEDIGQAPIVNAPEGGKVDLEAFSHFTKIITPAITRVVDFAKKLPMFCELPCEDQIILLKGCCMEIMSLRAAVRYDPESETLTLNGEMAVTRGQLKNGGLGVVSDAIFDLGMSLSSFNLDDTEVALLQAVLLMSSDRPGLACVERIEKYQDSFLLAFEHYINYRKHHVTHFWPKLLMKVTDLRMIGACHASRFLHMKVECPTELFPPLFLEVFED
# Protocol: as §1
# Cell line Endpoint effect Reference compound […]
# Cytotox CALUX Cytoxicity PC20 tributyltinacetate
# as §2, §3, §4, §5, §6, §7, §8, §9
# [7] = test system: U-2 OS cells; settings: human
# [8] = test system: U-2 OS cells; assay: Cytotox CALUX; settings: 24 h exposure, lowest effect level PC20, means from 3 assay runs
# [9] = pooled test systems of the NAM panel (all test methods)
# [10] = test system: Nrf2 (Oxidative stress); assay: Nrf2 CALUX; format: cell-based, human; settings: 24 h exposure, lowest effect level FI=1.5, means from 3 assay runs
# Protocol: as §1, §2, §3, §4, §5, §6, §7, §8, §9
# [11] = molecular target: T4, Pregnane X receptor (Homo sapiens, UniProt O75469); assay: PXR CALUX; format: cell-based; settings: 24 h exposure, lowest effect level PC10, means from 3 assay runs
# T4 construct: host or cells: U-2 OS
# T4 sequence (O75469 1-434): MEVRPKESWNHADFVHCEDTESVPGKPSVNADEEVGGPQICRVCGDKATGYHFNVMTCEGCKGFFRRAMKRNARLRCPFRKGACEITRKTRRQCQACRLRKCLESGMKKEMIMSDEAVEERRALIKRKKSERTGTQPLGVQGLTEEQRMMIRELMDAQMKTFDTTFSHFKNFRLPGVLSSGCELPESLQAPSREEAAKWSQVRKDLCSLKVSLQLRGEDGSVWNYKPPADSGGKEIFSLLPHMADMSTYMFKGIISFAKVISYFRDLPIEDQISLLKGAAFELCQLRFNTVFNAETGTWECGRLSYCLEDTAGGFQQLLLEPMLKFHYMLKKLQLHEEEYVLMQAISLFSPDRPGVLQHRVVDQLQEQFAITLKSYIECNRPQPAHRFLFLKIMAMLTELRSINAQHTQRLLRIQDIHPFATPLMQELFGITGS
# Protocol: as §1, §2, §3, §4, §5, §6, §7, §8, §9
# [12] = test system: Endoplasmic reticulum stress; assay: ESRE CALUX; format: cell-based, human; settings: 24 h exposure, lowest effect level PC10, means from 3 assay runs
# Protocol: as §1, §2, §3, §4, §5, §6, §7, §8, §9
# [13] = human, plasma; cited from earlier work
# [14] = all CALUX assays, 13 concentrations, 24 h exposure
smiles,measurement,setting,value
"C[n+]1ccc(-c2ccccc2)cc1 [MPP^+, methyl-phenyl-pyridinium]",response profile over the CALUX battery (in words),[1]; [14],no effect
CC(=O)O[C@H]1C(=O)[C@@]2(C)[C@H]([C@H](OC(=O)c3ccccc3)[C@]3(O)C[C@H](OC(=O)[C@H](O)[C@@H](NC(=O)c4ccccc4)c4ccccc4)C(C)=C1C3(C)C)[C@]1(OC(C)=O)CO[C@@H]1C[C@@H]2O [Taxol],PoD p21,[2],8.0 -log(M)
same,PoD PR - anta,[3],7.4 -log(M)
same,PoD AR - anta,[4],7.3 -log(M)
same,concentration activating expression of p53,[5],< 10 nM
same,PoD p53,[5],8.2 -log(M)
same,PoD TRβ - anta,[6],7.4 -log(M)
same,PoD cytotoxicity,[7],5.6
same,cytotoxic concentration,[7],about 2.5 µM
C=C(C)[C@H]1Cc2c(ccc3c2O[C@@H]2COc4cc(OC)c(OC)cc4[C@@H]2C3=O)O1 [Rotenone],PoD p53,[5],6.8 -log(M)
same,PoD cytotoxicity,[8],5.7 -log(M)
CCOC(=O)C(C)(C)Oc1ccc(Cl)cc1 [Clofibrate],response profile over the CALUX battery (in words),[1]; [14],no effect
same,viability,[9],100%
CO[C@H]1/C=C/O[C@@]2(C)Oc3c(C)c(O)c4c(O)c(c(/C=N/N5CCN(C)CC5)c(O)c4c3C2=O)NC(=O)/C(C)=C\C=C\[C@H](C)[C@H](O)[C@@H](C)[C@@H](O)[C@@H](C)[C@H](OC(C)=O)[C@@H]1C [Rifampicin],PoD Nrf2,[10],4.6 -log(M)
same,PoD PXR - ago,[11],7.1 -log(M)
same,PoD PR - anta,[3],4.8 -log(M)
same,response profile over the CALUX battery (in words),[1],additionally activated several stress pathway related assays
same,PoD p53,[5],4.2 -log(M)
same,PoD ESRE,[12],4.0 -log(M)
same,PoD cytotoxicity,[7],4.0
CC(=O)Nc1ccc(O)cc1 [Paracetamol],response profile over the CALUX battery (in words),[1]; [14],no effect
same,protein binding,[13],15%
